Experimental data: PubChem BioAssay AID1918938 (Molecular Pharmacology Branch, DTP, NCI, 2023)

Tested on: 556581-035-R-J1-PDC complex spheroid viability
Assay: Anticancer human tumor 556581-035-R-J1-PDC patient-derived ovarian carcinoma cell line growth inhibition
Settings: for IC50: curve of first compound; for viability, T/C: stronger effect = lower value
In short: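 Multicellular complex spheroids of tumor cells with human endothelial cells (HUVEC) and mesenchymal stem cells; the LSD1 inhibitor iadademstat was combined with standard-of-care or investigational agents. Top concentration at or near clinical Cmax, half-log dilutions; final DMSO ≤0.25%.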

[1] = second compound 0.1 µM, first compound 0.000316 µM
[2] = second compound 0.1 µM, first compound 0.001 µM
[3] = second compound 0.1 µM, first compound 0.00316 µM
[4] = second compound 0.1 µM, first compound 0.01 µM
[5] = second compound 0.1 µM, first compound 0.0316 µM
[6] = second compound 0.1 µM, first compound 0.1 µM
[7] = second compound 0.316 µM, first compound 0.000316 µM
[8] = second compound 0.316 µM, first compound 0.001 µM
[9] = second compound 0.316 µM, first compound 0.00316 µM
[10] = second compound 0.316 µM, first compound 0.01 µM
[11] = second compound 0.316 µM, first compound 0.0316 µM
[12] = second compound 0.316 µM, first compound 0.1 µM
[13] = second compound 1 µM, first compound 0.000316 µM
[14] = second compound 1 µM, first compound 0.001 µM
[15] = second compound 1 µM, first compound 0.00316 µM
[16] = second compound 1 µM, first compound 0.01 µM
[17] = second compound 1 µM, first compound 0.0316 µM
[18] = second compound 1 µM, first compound 0.1 µM
[19] = second compound 3.16 µM, first compound 0.000316 µM
[20] = second compound 3.16 µM, first compound 0.001 µM
[21] = second compound 3.16 µM, first compound 0.00316 µM
[22] = second compound 3.16 µM, first compound 0.01 µM
[23] = second compound 3.16 µM, first compound 0.0316 µM
[24] = second compound 3.16 µM, first compound 0.1 µM
[25] = second compound 10 µM, first compound 0.000316 µM
[26] = second compound 10 µM, first compound 0.001 µM
[27] = second compound 10 µM, first compound 0.00316 µM
[28] = second compound 10 µM, first compound 0.01 µM
[29] = second compound 10 µM, first compound 0.0316 µM
[30] = second compound 10 µM, first compound 0.1 µM
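Also: spheroids exposed to agents for seven days.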
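For viability, T/C in this document: 100% = DMSO vehicle control wells.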

Structure (SMILES)	IC50 (second compound 0.1 µM)	IC50 (second compound 0.316 µM)	IC50 (second compound 1 µM)	IC50 (second compound 3.16 µM)	IC50 (second compound 10 µM)	viability, T/C [3]	viability, T/C [4]	viability, T/C [5]	viability, T/C [6]	viability, T/C [9]	viability, T/C [10]	viability, T/C [11]	viability, T/C [12]	viability, T/C [15]	viability, T/C [16]	viability, T/C [17]	viability, T/C [18]	viability, T/C [21]	viability, T/C [22]	viability, T/C [23]	other results
CC(C)CC(NC(=O)C(Cc1ccccc1)NC(=O)c1cnccn1)B(O)O (stereo not given) + NC1CC1c1ccc(-c2cccc(O)c2)cc1	< 0.316 nM	< 0.316 nM	< 0.316 nM	< 0.316 nM	< 0.316 nM	0.12%	0.19%	0.14%	0.26%	0.35%	0.1%	0.09%	0.17%	0.08%	0.1%	0.1%	0.2%	0.11%	0.08%	0.09%	viability, T/C [1]: 1.61%; viability, T/C [2]: 0.66%; viability, T/C [7]: 3.63%; viability, T/C [8]: 0.1%; viability, T/C [13]: 1.67%; viability, T/C [14]: 0.11%; viability, T/C [19]: 1.12%; viability, T/C [20]: 0.11%; viability, T/C [24]: 0.31%; viability, T/C [25]: 1.94%; viability, T/C [26]: 0.27%; viability, T/C [27]: 0.22%; viability, T/C [28]: 5.89%; viability, T/C [29]: 0.35%; viability, T/C [30]: 0.86%
CC(C)CC(NC(=O)CNC(=O)c1cc(Cl)ccc1Cl)B1OC(=O)CC(CC(=O)O)(C(=O)O)O1 (stereo not given) + NC1CC1c1ccc(-c2cccc(O)c2)cc1	2.44 nM	2.84 nM	2.78 nM	2.67 nM	2.73 nM	38.2%	2.07%	0.71%	0.3%	45.8%	1.79%	1.03%	0.98%	44.5%	0.78%	0.36%	0.22%	44.1%	0.89%	0.65%	viability, T/C [1]: 85.1%; viability, T/C [2]: 95.6%; viability, T/C [7]: 85.4%; viability, T/C [8]: 96%; viability, T/C [13]: 91%; viability, T/C [14]: 95%; viability, T/C [19]: 82.8%; viability, T/C [20]: 85%; viability, T/C [24]: 0.31%; viability, T/C [25]: 85.4%; viability, T/C [26]: 74.8%; viability, T/C [27]: 47.1%; viability, T/C [28]: 3.21%; viability, T/C [29]: 0.15%; viability, T/C [30]: 1.14%
COc1cc(Nc2ncc3c(n2)-c2ccc(Cl)cc2C(c2c(F)cccc2OC)=NC3)ccc1C(=O)O + NC1CC1c1ccc(-c2cccc(O)c2)cc1	42.2 nM	27.5 nM	50.5 nM	440 nM	> 1000 nM	57.3%	51.5%	53.3%	44.6%	57.6%	56.5%	51.2%	43.1%	50.5%	49%	59.7%	42.9%	58.3%	57.4%	60.4%	viability, T/C (second compound 0.1 µM, first compound 0.316 µM): 45.7%; viability, T/C (second compound 0.1 µM, first compound 1 µM): 37.3%; viability, T/C (second compound 0.316 µM, first compound 0.316 µM): 37.4%; viability, T/C (second compound 0.316 µM, first compound 1 µM): 37.8%; viability, T/C (second compound 1 µM, first compound 0.316 µM): 46.4%; viability, T/C (second compound 1 µM, first compound 1 µM): 37.9%; viability, T/C [24]: 49.7%; viability, T/C (second compound 3.16 µM, first compound 0.316 µM): 56%; viability, T/C (second compound 3.16 µM, first compound 1 µM): 42.5%; viability, T/C [27]: 73.8%; viability, T/C [28]: 60.5%; viability, T/C [29]: 59.7%; viability, T/C [30]: 55.5%; viability, T/C (second compound 10 µM, first compound 0.316 µM): 52%; viability, T/C (second compound 10 µM, first compound 1 µM): 50.2%
